# Measured values as given in ChEMBL document CHEMBL5584201, “Amphiphilic tribasic galactosamines potentiate rifampicin in Gram-negative bacteria at low Mg++/Ca++concentrations” (Bioorg Med Chem Lett, 2024).
# Test system: Pseudomonas aeruginosa
# Experiment: Potentiation of rifampicin-induced antibacterial activity against Pseudomonas aeruginosa PAO1 assessed as fold change in rifampicin MIC in low salt containing media by Mueller-Hinton broth based assay
# Format: functional
row,SMILES,fold change (FC)
1,CCCCCCCCO[C@@H]1O[C@H](CO)[C@H](N)[C@H](OCc2ccc3ccccc3c2)[C@H]1N,1
2,CCCCCCCCO[C@@H]1O[C@H](CN)[C@H](N)[C@H](OCc2ccc3cccnc3c2)[C@H]1N,2

# Test system: Acinetobacter baumannii
# Experiment: Potentiation of rifampicin-induced antibacterial activity against Acinetobacter baumannii ATCC 17978 assessed as fold change in rifampicin MIC in low salt containing media by Mueller-Hinton broth based assay
# Format: functional
row,SMILES,fold change (FC)
1,CCCCCCCCO[C@@H]1O[C@H](CO)[C@H](N)[C@H](OCc2ccc3ccccc3c2)[C@H]1N,2
2,CCCCCCCCO[C@@H]1O[C@H](CN)[C@H](N)[C@H](OCc2ccc3cccnc3c2)[C@H]1N,64

# Test system: Pseudomonas aeruginosa
# Experiment: Antibacterial activity against Pseudomonas aeruginosa PAO1 in low salt containing media by Mueller-Hinton broth based assay
# Format: functional
row,SMILES,MIC [µg/mL]
1,CCCCCCCCO[C@@H]1O[C@H](CO)[C@H](N)[C@H](OCc2ccc3ccccc3c2)[C@H]1N,> 128
2,CCCCCCCCO[C@@H]1O[C@H](CN)[C@H](N)[C@H](OCc2ccc3cccnc3c2)[C@H]1N,> 128

# Test system: Escherichia coli
# Experiment: Potentiation of rifampicin-induced antibacterial activity against Escherichia coli ATCC 25922 assessed as rifampicin MIC in low salt containing media by Mueller-Hinton broth based assay
# Format: functional
row,SMILES,MIC [µg/mL]
1,CCCCCCCCO[C@@H]1O[C@H](CO)[C@H](N)[C@H](OCc2ccc3ccccc3c2)[C@H]1N,8
2,CCCCCCCCO[C@@H]1O[C@H](CN)[C@H](N)[C@H](OCc2ccc3cccnc3c2)[C@H]1N,8

# Test system: Escherichia coli
# Experiment: Potentiation of rifampicin-induced antibacterial activity against Escherichia coli ATCC 25922 assessed as fold change in rifampicin MIC in low salt containing media by Mueller-Hinton broth based assay
# Format: functional
row,SMILES,fold change (FC)
1,CCCCCCCCO[C@@H]1O[C@H](CO)[C@H](N)[C@H](OCc2ccc3ccccc3c2)[C@H]1N,2
2,CCCCCCCCO[C@@H]1O[C@H](CN)[C@H](N)[C@H](OCc2ccc3cccnc3c2)[C@H]1N,32

# Test system: Acinetobacter baumannii
# Experiment: Antibacterial activity against Acinetobacter baumannii ATCC 17978 in low salt containing media by Mueller-Hinton broth based assay
# Format: functional
row,SMILES,MIC [µg/mL]
1,CCCCCCCCO[C@@H]1O[C@H](CO)[C@H](N)[C@H](OCc2ccc3ccccc3c2)[C@H]1N,32
2,CCCCCCCCO[C@@H]1O[C@H](CN)[C@H](N)[C@H](OCc2ccc3cccnc3c2)[C@H]1N,128

# Test system: Escherichia coli
# Experiment: Antibacterial activity against Escherichia coli ATCC 25922 in low salt containing media by Mueller-Hinton broth based assay
# Format: functional
row,SMILES,MIC [µg/mL]
1,CCCCCCCCO[C@@H]1O[C@H](CO)[C@H](N)[C@H](OCc2ccc3ccccc3c2)[C@H]1N,32
2,CCCCCCCCO[C@@H]1O[C@H](CN)[C@H](N)[C@H](OCc2ccc3cccnc3c2)[C@H]1N,64

# Test system: Acinetobacter baumannii
# Experiment: Potentiation of rifampicin-induced antibacterial activity against Acinetobacter baumannii ATCC 17978 assessed as rifampicin MIC in low salt containing media by Mueller-Hinton broth based assay
# Format: functional
row,SMILES,MIC [µg/mL]
1,CCCCCCCCO[C@@H]1O[C@H](CO)[C@H](N)[C@H](OCc2ccc3ccccc3c2)[C@H]1N,8
2,CCCCCCCCO[C@@H]1O[C@H](CN)[C@H](N)[C@H](OCc2ccc3cccnc3c2)[C@H]1N,8

# Test system: Pseudomonas aeruginosa
# Experiment: Potentiation of rifampicin-induced antibacterial activity against Pseudomonas aeruginosa PAO1 assessed as rifampicin MIC in low salt containing media by Mueller-Hinton broth based assay
# Format: functional
row,SMILES,MIC [µg/mL]
1,CCCCCCCCO[C@@H]1O[C@H](CO)[C@H](N)[C@H](OCc2ccc3ccccc3c2)[C@H]1N,16
2,CCCCCCCCO[C@@H]1O[C@H](CN)[C@H](N)[C@H](OCc2ccc3cccnc3c2)[C@H]1N,8
